Assay results reported in patent US7282469B2, “4-trifluoromethylpyrazolyl-substituted pyridines and pyrimidines” (Bayer CropScience GmbH, priority 2002, dated 2007).

Legend:
Zea mays (maize) = experiment: Crop plant tolerance, pre-emergence; format: in vivo; conditions: 20 g of active substance per hectare
From the text: (§1) 1. Weed Plant Herbicidal Activity and Crop Plant Tolerance, Pre-emergence
(§2) Seeds of monocotyledonous and dicotyledonous weed plants and also of crop plants are placed in sandy loam soil in cardboard pots and are covered with soil. The compounds of the invention, formulated as wettable powders or emulsifiable concentrates, are then applied as an aqueous suspension or emulsion, respectively, and at different dosages to the surface of the covering soil at an application rate of 600 to 800 l of water per ha (converted). Following treatment, the pots are placed in a greenhouse and kept under good growth conditions for the weeds. Visual scoring of the plant damage or emergence damage is made after the test plants have emerged, after an experimental period of 3 to 4 weeks, in comparison with untreated controls. In this case, for example, the compounds of the invention from examples nos. 1.7 and 4.1 at a dosage of 320 g of active substance per hectare display a 100% activity against Digitaria sanguinalis, Setaria viridis and Amaranthus retroflexus. At the same dosage these compounds of the invention cause no damage to the crop plants Oryza sativa (rice) and Glycine max (soybean). The compound of the invention from example no. […] At the same dosage this compound of the invention causes no damage to the crop plants Oryza sativa (rice), Zea mays (maize) and Glycine max (soybean). At a dosage of 320 g of active substance per hectare, the compound of the invention from example no.

Glycine max (soybean) = experiment: Crop plant tolerance, pre-emergence; format: in vivo
From the text: as §1, §2

Oryza sativa (rice) = experiment: Crop plant tolerance, pre-emergence; format: in vivo
From the text: as §1, §2

Alopecurus myosuroides = experiment: Weed plant herbicidal activity, pre-emergence; format: in vivo; conditions: 20 g of active substance per hectare, visual scoring after 3 to 4 weeks
From the text: as §1, §2

Digitaria sanguinalis = experiment: Weed plant herbicidal activity, pre-emergence; format: in vivo; conditions: 320 g of active substance per hectare, visual scoring after 3 to 4 weeks
From the text: as §1, §2

Veronica persica = experiment: Weed plant herbicidal activity, pre-emergence; format: in vivo; conditions: 20 g of active substance per hectare, visual scoring after 3 to 4 weeks
From the text: as §1, §2

Setaria viridis = experiment: Weed plant herbicidal activity, pre-emergence; format: in vivo; conditions: visual scoring after 3 to 4 weeks
From the text: as §1, §2

Amaranthus retroflexus = experiment: Weed plant herbicidal activity, pre-emergence; format: in vivo; conditions: visual scoring after 3 to 4 weeks
From the text: as §1, §2

[1] = 20 g of active substance per hectare
[2] = 320 g of active substance per hectare

- melting point: 103 to 105 °C
SMILES: Cc1cnc(-n2cc(C(F)(F)F)cn2)nc1Oc1cccc(C(F)(F)F)c1 [Example 1.7, 5-methyl-4-(3-trifluoromethylphenoxy)-2-(4-trifluoromethyl-1H-1-pyrazolyl)pyrimidine]
- damage to the crop plant Zea mays (maize) (Zea mays (maize)): no damage
- damage to the crop plant Glycine max (soybean) (Glycine max (soybean); [1]): no damage
- damage to the crop plant Glycine max (soybean) (Glycine max (soybean); [2]): no damage
- damage to the crop plant Oryza sativa (rice) (Oryza sativa (rice); [1]): no damage
- damage to the crop plant Oryza sativa (rice) (Oryza sativa (rice); [2]): no damage
- activity against Alopecurus myosuroides (Alopecurus myosuroides): at least 90%
- activity against Digitaria sanguinalis (Digitaria sanguinalis): 100%
- activity against Veronica persica (Veronica persica): at least 90%
- activity against Setaria viridis (Setaria viridis; [1]): at least 90%
- activity against Setaria viridis (Setaria viridis; [2]): 100%
- activity against Amaranthus retroflexus (Amaranthus retroflexus; [1]): at least 90%
- activity against Amaranthus retroflexus (Amaranthus retroflexus; [2]): 100%
